Test results taken from article PMC9963438, “Emerging Effects of Resveratrol Derivatives in Cells Involved in Oral Wound Healing: A Preliminary Study” (International Journal of Molecular Sciences, 2023).

How the values were obtained:
[1] = test system: HUVECs; test: Toluidine blue staining, morphology and confluence of HUVECs; type: cell-based, human; settings: 5 µM; for HUVECs confluence: 48 h, compared to CTRL and RSV; for HUVECs growth / confluence: 72 h, compared to controls
Method: The influence of 1d and 1h was evaluated on cells density and morphology by toluidine-blue staining. A total of 2 × 10^4 cells/well were cultured in 24-well plates and were incubated at 37 °C and 5% CO2 with tested compounds at 5 µM. After 48 and 72 h, adherent cells were fixed with 70% cold ethanol and stained with 1% toluidine blue and 1% borax (Sigma Aldrich, St. Louis, MO, USA). Cells were then observed by an inverted microscope connected with a camera at 40×, 100×, and 200× magnifications (Leica, Wild Heer-brugg, Wetzlar, Germany).

[2] = test system: human gingival fibroblasts (HGFs); test: MTT cytocompatibility screening on HGFs, 24 h; type: cell-based; settings: for HGFs metabolic activity / cell viability (MTT): 10 µM, vs control (DMSO) and RSV; for HGFs cell viability (MTT): vs control and RSV
[3] = test system: HOBs; test: LDH release assay on HOBs; type: cell-based, human; settings: 24 h
Method: (§1) Lactate Dehydrogenase (LDH) activity in HUVECs, HGFs, and HOBs was measured with a cytotoxicity detection kit LDH (Roche, Basilea, Swiss). Firstly, 5000 cells/well (HUVECs, HGFs and HOBs) were seeded in 96-well plates and treated with 1d and 1h (5, 10, 20 µM). After 24 h, the assay was performed according to manufacturer instructions. LDH release was calculated as a percentage with respect to the control (CTRL).

[4] = test system: eNOS mRNA in HUVECs; test: RT-qPCR of eNOS in HUVECs; type: cell-based, human
Method: (§2) Total RNA was isolated using Trifast reagent (EuroClone) according to the manufacturer instructions from 3 × 10^5 cells/well treated with increasing concentrations of 1d and 1h for 48 h and 72 h. Complementary DNA (cDNA) was obtained using GoTaq® 2 Step RT-qPCR Kit (Promega, Madison, WI, USA) in accordance with the manufacturer’s instructions. RT-qPCR was carried out using SYBR Green (Promega) on the Quant Studio 7 Pro Real-Time PCR System (ThermoFisher, Waltham, MA, USA). The results were normalized to glyceraldehyde 3-phoshate dehydrogenase (GAPDH) for HUVECs and HGFs and to β-actin (βACT) for HOBs using the 2^−ΔΔCt method.

[5] = test system: HUVECs; test: LDH release assay on HUVECs; type: cell-based, human; settings: 24 h
Method: as §1

[6] = Kinetic of chemical hydrolysis, pH 7.0; type: physicochemical; settings: pH 7.0, 37 °C; for Chemical hydrolysis Kobs: mean of three experiments (SD); for half-life at 18.2 µM: phosphate buffer, read-out: Chemical hydrolysis t ½ (converted)
Method: A phosphate buffer (PBS, pH 7.0) was used to estimate the chemical stability. The reaction was started by adding 1 mL of a 2 × 10^−4 M stock solution in ACN to a thermostatic (37 ± 0.5 °C) aqueous buffer solution (8 mL) and 2 mL of acetonitrile, containing 0.1% (v/v) Cremophor ELP. At established time points, samples (200 µL) were withdrawn and analyzed by HPLC. Pseudo-first-order rate constants (kobs) for the hydrolysis of the compound were calculated from the slopes of the linear plots of log (% residual compound) against time. The results are expressed as mean values of three different experiments.

[7] = test system: FN1 mRNA in HGFs; test: RT-qPCR of FN1 in HGFs; type: cell-based, human; settings: 5, 10, 20 µM, 48 and 72 h, compared to RSV-treated cells and CTRL
Method: as §2

[8] = LogP determination (n-octanol/phosphate buffer pH 7.4); type: physicochemical; settings: n-octanol/aqueous phosphate buffer, pH 7.4, n-octanol / phosphate buffer pH 7.4; mean of three experiments (SD)
Method: Both n-octanol and aqueous phosphate buffer (pH 7.4) solutions were saturated of each other by shaking. A total of 1 mL of n-octanol was added to an equal volume of an aqueous phosphate buffer (pH 7.4). A total of 5 mg of each compound was added and mixed by repeated inversion up to 200 times for 5 min and then allowed to stand for 30 min for the full separation of the two phases. Next, the respective phases were filtered and analyzed by HPLC [50] and the logarithm of the ratio of the concentrations of the unionized solute in the solvents (LogP) were determined.

[9] = Kinetics in human plasma (enzymatic hydrolysis); type: in vitro ADME; settings: 37 °C; for Enzymatic hydrolysis t ½ / Enzymatic hydrolysis Kobs: Human plasma; for Enzymatic hydrolysis Kobs: mean of three experiments (SD); for half-life at 40 µg/mL: human, human plasma (80%) diluted with phosphate buffer, pH 7.4, Human plasma, read-out: Enzymatic hydrolysis t ½
Method: Human plasma was obtained from 3H Biomedical (Uppsala, Sweden, Europe). Plasma fractions (2 mL) were diluted with […] of a 0.02 M phosphate buffer (PBS, pH 7.4) to obtain a final volume of 2.5 mL (80% of plasma). A total of 100 µL of a stock solution, prepared to dissolve 1 mg of each compound in 1 mL of ACN, was added. Studies were performed at 37 ± 0.5 °C using a shaking bath. Aliquots (100 µL) were taken at established time points and treated with 400 µL of 0.01 M HCl in methanol. After centrifugation for 15 min at 6000× g, the supernatant was filtered and analyzed by HPLC [51].

[10] = Water solubility; type: physicochemical; settings: deionized water, 25 °C
Method: An excess of compounds 1d and 1h was placed in 1 mL of deionized water and the suspension was shaken at 25 °C for 15 min to ensure the solubility equilibrium. Next, the supernatant was filtered (Millipore 0.45 µm, Burlington, Massachusetts, USA) and analyzed by HPLC [49].

[11] = test system: HGFs; test: LDH release assay on HGFs; type: cell-based, human; settings: 24 h
Method: as §1

[12] = test system: HOBs; test: Alizarin red staining and calcium deposition (CPC) in HOBs; type: cell-based, human; settings: 5 µM, 14 days
Method: To evaluate mineralization qualitatively, Alizarin red staining was performed. 5 × 10^4/well HOBs were seeded and treated with 1d and 1h. After 14 days of culture, HOBs were rinsed three times with PBS and fixed with a glutaraldehyde solution (2.5%) for 2 h. An Alizarin staining solution (Sigma-Aldrich) was then added for 1h at room temperature and the excess dye was removed using deionized water. The presence of calcium deposition was qualitatively evaluated by observing the intensity of the red color. Images were taken by a stereomicroscope connected with a camera at a magnification of 12× (Leica, Wetzlar, Germany). Furthermore, to quantify calcium deposition, Cetylpyridinium Chloride (CPC) was used. Upon a washing with deionized water, cells were treated with 1 mL of 10% CPC solution (Sigma-Aldrich) for 1 h to chelate calcium ions. After incubation, the absorbance was read at 540 nm by a microplate reader (Synergy H1 Hybrid BioTek Instruments) and normalized with the cell number.

[13] = 10 and 20 µM, differences not significant

Structure (SMILES)	HUVECs confluence [1]	HUVECs growth / confluence [1]	HGFs metabolic activity / cell viability (MTT) [2]	HGFs cell viability (MTT) ([2]; 20 µM)	HGFs cell viability (MTT) ([2]; 50 µM)	LDH release ([3]; 5 µM)	LDH release [3, 13]	melting point [°C]	eNOS mRNA expression ([4]; 5 µM, 48 h, vs CTRL and RSV)	eNOS mRNA expression ([4]; 5, 10, 20 µM, 72 h)	LDH release ([5]; 5 µM)	LDH release [5, 13]	Chemical hydrolysis Kobs [6]	half-life at 18.2 µM [6] [h]	FN1 mRNA level [7]	logP [8]	Enzymatic hydrolysis t ½ [9] [h]	Enzymatic hydrolysis Kobs [9]	half-life at 40 µg/mL [9] [h]	Water solubility [10]	other results
Cc1ccc(S(=O)(=O)Nc2ccc(/C=C/c3ccccc3)cc2)cc1 [1d, 4-Methyl-N-{4-[(E)-2-phenylvinyl]phenyl}benzenesulfonamide]	reached confluence approximately earlier	growth was more consistent	statistically augmented the cell viability	statistically significant increase in HGF viability	positively and statistically increases cell viability	lowest LDH values	slightly increased the LDH	182 to 183	increased after 48 h exposure to all 1d concentrations with statistical significance just for 5 µM	slightly promoted the enhancement of eNOS expression	lowest LDH values	slightly increased the LDH	0.050 (±0.004) h^−1	13.9	no significant modifications	< 3	49.5	0.014 (±0.005) h^−1	> 49	insoluble in water	eNOS mRNA expression ([4]; 10 and 20 µM, 48 h, not statistically significant): increased; LDH release ([11]; 5 µM): lowest LDH values; LDH release [11, 13]: slightly increased the LDH; matrix mineralization by ARS (qualitative) [12]: higher mineralization potential; calcium deposition (quantitative measurement with CPC) ([12]; vs control, RSV and 1h): significantly stimulated the calcium deposition
CCS(=O)(=O)Nc1ccc(/C=C/c2ccccc2)cc1 [1h, N-{4-[(E)-2-Phenylvinyl]phenyl}ethanesulfonamide]	reached confluence approximately earlier	growth was more consistent	statistically augmented the cell viability	slight increase in HGF viability	no statistically significant differences	lowest LDH values	slightly increased the LDH	230 to 231	increased eNOS expression at 5 µM	slightly promoted	lowest LDH values	slightly increased the LDH	0.030 (±0.001) h^−1	23.4	no significant modifications	< 3	51.7	0.013 (±0.003) h^−1	> 49	insoluble in water	LDH release ([11]; 5 µM): lowest LDH values; LDH release [11, 13]: slightly increased the LDH; matrix mineralization by ARS (qualitative) [12]: stimulated the formation of mineralized nodules
